Source: US20240180876A1, “COMPOSITION FOR INCREASING RED BLOOD CELLS AND/OR HEMOGLOBIN” (SUNTORY HOLDINGS LIMITED, priority 2021, published 2024)

Key:
[1] = placebo-controlled, randomized, double-blind, parallel-group human study of red blood cell count, hemoglobin concentration and blood taurine level; format: in vivo; conditions: male and female adults, one capsule with 20 mg L-ergothioneine per day for four weeks, pre-testing to week 4, versus control food group
Procedure: In order to evaluate the influence of supplements containing ergothioneine on the red blood cell count in the blood, blood hemoglobin concentration, and blood taurine level, a placebo-controlled, randomized, double-blind, parallel-group study was conducted on subjects including male and female adults (46 subjects in a test food group; 46 subjects in a control food group; 92 subjects in total). In this study, one capsule containing 20 mg ergothioneine (test food) or one capsule not containing ergothioneine (control food) was fed per day for four weeks. The red blood cell count in the blood, blood hemoglobin concentration, and blood taurine level of each subject were measured for pre-testing before starting the study (before starting ingestion of the test food or control food). After ingestion of the test food or control food for four weeks, the red blood cell count in the blood, blood hemoglobin concentration, and blood taurine level of each subject were measured again (testing on week 4). The red blood cell count in the blood and blood hemoglobin concentration were measured by known methods. […] Specifically, the amount of change in the test food group at the time of testing on week 4 was determined by subtracting the measurements (average) of the test food group at the time of pre-testing from the measurements (average) of the test food group at the time of testing on week 4. Similarly, the amount of change in the control food group at the time of testing on week 4 was determined by subtracting the measurements (average) at the time of pre-testing from the measurements (average) at the time of testing on week 4. […]

[2] = mice orally administered, versus mice not administered; cited from earlier work

C[N+](C)(C)[C@@H](Cc1c[nH]c(=S)[nH]1)C(=O)[O-] [L-ergothioneine]
change in blood hemoglobin concentration [1]: significantly increased | change in blood taurine level (CE-TOF-MS) [1]: significantly increased | change in red blood cell count in the blood [1]: significantly increased | peritesticular fat weight [2]: lower | triglyceride (neutral fat) level in plasma [2]: lower
